Reference: patent publication US20030220521A1, “Renal-selective prodrugs for control of renal sympathetic nerve activity in the treatment of hypertension” (G.D. Searle & Co., priority 1989, published 2003)
Like-named read-outs stand apart in the source and are kept apart here.

What was measured:
[1] = molecular target: T1, dopamine beta-hydroxylase (DBH; EC 1.14.17.1) (Bos taurus, UniProt P15101); experiment: Assay V: in vitro DBH inhibition (norepinephrine production, HPLC); assay type: biochemical, bovine; conditions: for inhibition at 20 µM: read-out: % Inhibition of DBH; for inhibitory effect on dopamine-β-hydroxylase activity: tested at 20 uM
T1 construct: DBH, purified from bovine adrenals (Sigma); purchased Sigma; host or cells: bovine adrenals (tissue-purified)
T1 sequence (P15101 1-610): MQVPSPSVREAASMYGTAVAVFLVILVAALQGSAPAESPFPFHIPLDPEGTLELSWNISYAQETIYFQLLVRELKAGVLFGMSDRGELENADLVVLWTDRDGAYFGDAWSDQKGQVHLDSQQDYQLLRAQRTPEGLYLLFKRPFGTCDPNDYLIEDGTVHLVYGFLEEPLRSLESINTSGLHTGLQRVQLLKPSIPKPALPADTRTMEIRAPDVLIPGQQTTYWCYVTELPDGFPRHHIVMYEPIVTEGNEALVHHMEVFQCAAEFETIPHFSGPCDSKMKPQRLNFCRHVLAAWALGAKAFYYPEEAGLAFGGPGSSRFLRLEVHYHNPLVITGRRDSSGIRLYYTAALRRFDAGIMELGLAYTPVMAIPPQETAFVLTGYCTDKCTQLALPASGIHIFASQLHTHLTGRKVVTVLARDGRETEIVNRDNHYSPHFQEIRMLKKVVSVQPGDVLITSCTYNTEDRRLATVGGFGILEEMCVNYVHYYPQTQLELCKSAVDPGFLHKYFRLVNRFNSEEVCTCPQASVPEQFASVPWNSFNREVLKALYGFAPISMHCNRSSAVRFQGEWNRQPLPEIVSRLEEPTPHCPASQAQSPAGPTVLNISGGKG
Protocol: In order to characterize the relative potency of the Ex. #859 conjugate and its various potential metabolites as inhibitors of dopamine beta-hydroxylase (DBH; EC 1.14.17.1), the enzyme activity was determined in vitro in the presence of these compounds. DBH, purified from bovine adrenals (Sigma) was incubated at 37° C. in buffer containing 20 mM dopamine as substrate. The reaction was stopped by addition of 0.5 M perchloric acid. The precipitate was removed and the product of the enzyme activity (norepinephrine), contained in the clear supernatant, was analyzed by HPLC. The chromatographic separation used a reversed phase C-18 column run isocratically with 0.2 M ammonium acetate (pH 5.2) as the mobile phase. The amount of norepinephrine produced by the enzyme-substrate mixture was analyzed by measuring the peak intensity (absorbance) at 280 nm for norepinephrine as it was eluted at 4.5 minutes, using a photo-diode array detector. The result of adding either fusaric acid or the Ex. #859 conjugate to the incubate at various concentrations is shown in Table XXIII and FIG. 6. […] Fusaric acid and Ex. #859 and two more possible metabolites (Ex #858 and fusaric acid hydrazide) were tested at 20 uM.

SHR = experiment: Assay VIII: chronic 5 day i.v. infusion, mean arterial pressure in SHR; assay type: in vivo, rat; conditions: for chronic effect on mean arterial pressure compared to vehicle: SHR, 5 day infusion, Ex. #859 5 mg/hr, fusaric acid 2.5 mg/hr
Protocol: The Ex. #859 conjugate and saline vehicle were infused continuously for 5 days in SHR. Mean arterial pressure was measured (Gould Chart Recorder, model 3800; Statham P23Db pressure transducer) via an indwelling femoral artery catheter between 10:00 a.m. and 2:00 p.m. each day. The Ex. #859 conjugate (5 mg/hr), fusaric acid (2.5 mg/hr), and saline (100 μ1/hr) were infused via a jugular vein catheter with a Harvard infusion pump.

[2] = tested on: Spontaneously Hypertensive Rats (SHR); experiment: Assay VII: acute effects on arterial pressure in anesthetized SHR; assay type: in vivo, rat; conditions: for Mean arterial pressure: i.v.: fusaric acid and fusaric acid hydrazide 100 mg/kg, Ex. #859 250 mg/kg
Protocol: Mean arterial pressure effects of fusaric acid hydrazide (100 mg/kg, i.v.), fusaric acid (100 mg/kg, i.v.) and Ex. #859 conjugate (250 mg/kg, i.v.) are shown in Table XXVII during a vehicle control period and 60 min post-injection of compound in anesthetized SHR. Rats were prepared as described above, minus the renal artery flow probe.

[3] = Assay IV: metabolism of conjugate to fusaric acid in rat kidney homogenate; assay type: in vitro ADME
Protocol: A freshly excised rat kidney was homogenized in 10 ml cold buffer (100 mM Tris, 15 mM glycylglycine, pH 7.4) with a Polytron Tissue Homogenizer (Brinkmann). The resulting suspension, diluted with buffer, was incubated in the presence of the Ex. #859 conjugate at 37° C. At various times aliquots were removed, deproteinized with an equal volume of cold trichloroacetic acid (25%) and centrifuged. The supernatant was injected onto a C-18 reverse-phase HPLC column and eluted isocratically with a mixture of acetonitrile and water (20:80 v/v) containing trifluoroacetic acid (0.05%). Eluted compounds were monitored by absorbance at 254 nm and compared to standards run under identical conditions. In the assay using pure kidney enzyme homogenate, the Ex. #859 conjugate was also incubated under the same conditions as described except that 5 mg of gamma-glutamyl transpeptidase (Sigma, 23 units/mg) and 10 mg of acylase I (Sigma, 4800 units/mg) were added in place of the homogenate. Analysis by HPLC was performed in a manner identical to that used for the kidney homogenate experiment.

CCCCc1ccc(C(=O)NNC(=O)CCC(NC(C)=O)C(=O)O)nc1 [Ex. #859, N-acetyl-L-glutamic acid, 5-[(5-butyl-2-pyridinyl)-carbonyl]hydrazide]
Norepinephrine Peak Intensity (Abs 280) in the presence of compound ([1]; compound 0.10 μM): 0.51 Abs 280 | Norepinephrine Peak Intensity (Abs 280) in the presence of compound ([1]; compound 1.00 μM): 0.52 Abs 280 | Norepinephrine Peak Intensity (Abs 280) in the presence of compound ([1]; compound 10.00 μM): 0.61 Abs 280 | Norepinephrine Peak Intensity (Abs 280) in the presence of compound ([1]; compound 100.00 μM): 0.53 Abs 280 | DBH inhibitory activity ([1]; concentrations up to 100 uM): no appreciable activity | inhibition at 20 µM ([1]; test compound 20 μM): 1.5% | inhibitory effect on dopamine-β-hydroxylase activity [1]: Only fusaric acid had significant inhibitory effects | MAP (SE) (SHR; 5 mg/hr i.v. infusion, day 1): 122 ± 9 mm Hg | MAP (SE) (SHR; 5 mg/hr i.v. infusion, day 2): 115 ± 9 mm Hg | MAP (SE) (SHR; 5 mg/hr i.v. infusion, day 3): 119 ± 11 mm Hg | MAP (SE) (SHR; 5 mg/hr i.v. infusion, day 4): 121 ± 7 mm Hg | MAP (SE) (SHR; 5 mg/hr i.v. infusion, day 5): 115 ± 8 mm Hg | MAP (SE) (SHR; 5 mg/hr i.v. infusion, day zero): 146 ± 5 mm Hg | chronic effect on mean arterial pressure compared to vehicle (SHR): lowered mean arterial pressure similarly | Mean arterial pressure ([2]; 60 MIN post-injection): 146 ± 15 mmHg | Mean arterial pressure ([2]; ZERO (vehicle control period)): 151 ± 9 mmHg | hypotensive effect / effect on mean arterial pressure ([2]; i.v., 60 min post-injection): no effect | amount of fusaric acid liberated on incubation ([3]; kidney homogenate, 37° C): linear increase | other metabolites observed (fusaric acid hydrazide, gamma-glutamyl fusaric acid hydrazide) ([3]; kidney homogenate, 37° C): No fusaric acid hydrazide or gamma-glutamyl fusaric acid hydrazide was observed

CCCCc1ccc(C(=O)O)nc1 [Fusaric Acid, 5-n-butylpicolinic acid]
concentration above which the enzyme is inhibited ([1]; 20 mM dopamine as substrate, 37° C): > 1 µM | Norepinephrine Peak Intensity (Abs 280) in the presence of compound ([1]; compound 0.01 μM): 0.59 Abs 280 | Norepinephrine Peak Intensity (Abs 280) in the presence of compound ([1]; compound 0.10 μM): 0.59 Abs 280 | Norepinephrine Peak Intensity (Abs 280) in the presence of compound ([1]; compound 0.50 μM): 0.60 Abs 280 | Norepinephrine Peak Intensity (Abs 280) in the presence of compound ([1]; compound 1.00 μM): 0.53 Abs 280 | Norepinephrine Peak Intensity (Abs 280) in the presence of compound ([1]; compound 5.00 μM): 0.25 Abs 280 | Norepinephrine Peak Intensity (Abs 280) in the presence of compound ([1]; compound 10.00 μM): 0.14 Abs 280 | Norepinephrine Peak Intensity (Abs 280) in the presence of compound ([1]; compound 50.00 μM): 0.00 Abs 280 | Norepinephrine Peak Intensity (Abs 280) in the presence of compound ([1]; compound 100.00 μM): 0.00 Abs 280 | inhibition at 20 µM [1]: 75.4% | inhibitory effect on dopamine-β-hydroxylase activity [1]: significant inhibitory effects | MAP (SE) (SHR; 2.5 mg/hr i.v. infusion, day 1): 118 ± 5 mm Hg | MAP (SE) (SHR; 2.5 mg/hr i.v. infusion, day 2): 114 ± 7 mm Hg | MAP (SE) (SHR; 2.5 mg/hr i.v. infusion, day 3): 122 ± 5 mm Hg | MAP (SE) (SHR; 2.5 mg/hr i.v. infusion, day 4): 114 ± 6 mm Hg | MAP (SE) (SHR; 2.5 mg/hr i.v. infusion, day 5): 114 ± 3 mm Hg | MAP (SE) (SHR; 2.5 mg/hr i.v. infusion, day zero): 148 ± 6 mm Hg | chronic effect on mean arterial pressure compared to vehicle (SHR): lowered mean arterial pressure similarly | Mean arterial pressure ([2]; 60 MIN post-injection): 110 ± 21 mmHg | Mean arterial pressure ([2]; ZERO (vehicle control period)): 164 ± 10 mmHg | stability of liberated fusaric acid ([3]; kidney homogenate incubation conditions): remains stable
